≈ marks a conversion by molar mass, not a printed value.
Tests used:
Type in all cases: functional
Details in all cases: time 24-48 hrs
Clostridioides difficile [1] = test: Antibacterial activity against Clostridioides difficile assessed as bacterial growth inhibition measured at 24 to 48 hrs
Clostridioides difficile [2] = test: Antibacterial activity against Clostridioides difficile ATCC 43255 assessed as bacterial growth inhibition measured at 24 to 48 hrs
Clostridioides difficile [3] = test: Antibacterial activity against multi drug resistant Clostridioides difficile assessed as bacterial growth inhibition measured at 24 to 48 hrs
Clostridioides difficile [4] = test: Antibacterial activity against drug sensitive Clostridioides difficile assessed as bacterial growth inhibition measured at 24 to 48 hrs

SMILES | MIC (Clostridioides difficile [1]) | MIC (Clostridioides difficile [2]) | other results
O=[N+]([O-])c1cn(CCO)c(-c2nc(-c3ccc(OC4CCCC4)cc3)no2)n1 | > 128 µg/mL | – | –
Cn1c(-c2nc(-c3ccc(OC4CCCC4)cc3)no2)cnc1[N+](=O)[O-] | 32 µg/mL (≈ 90.1 µM) | – | –
Cc1ncc([N+](=O)[O-])n1CCO [METRONIDAZOLE] | 0.25 µg/mL (≈ 1.46 µM) | – | –
FC(F)(F)c1ccc(Oc2ccc(-c3noc(-c4ccc5[nH]ccc5c4)n3)cc2)cc1 | – | 4 µg/mL (≈ 9.49 µM) | –
O=[N+]([O-])c1c[nH]c(-c2nc(-c3ccc(OC4CCCC4)cc3)no2)n1 | – | 0.25 µg/mL (≈ 0.732 µM) | MIC90 (Clostridioides difficile [3]): 1 µg/mL (≈ 2.93 µM); MIC90 (Clostridioides difficile [4]): 1 µg/mL (≈ 2.93 µM)
Oc1ccc(-c2nc(-c3ccc(OC4CCCC4)cc3)no2)cc1 | – | 2 µg/mL (≈ 6.2 µM) | –
